Earlier results, collected in patent US8962847B2, “Multicomponent crystals made of ([2-amino-6-(4-fluoro-benzylamino)-pyridin-3-yl]-carbamic acid ethyl ester and an arylpropionic acid” (TEVA GmbH, priority 2010, dated 2015).
Counter-ions that a name gives are not always drawn. Like-named read-outs stand apart in the source and are kept apart here.

How the values were obtained:
[1] = test system: pain, fever, inflammation; conditions: in vivo
[2] = test system: antinociceptive (pain perception inhibiting) activity; conditions: mice, flupirtine maleate 15 mg per kg with various dosages of NSAIDS
[3] = test system: antinociceptive (pain perception inhibiting) activity; conditions: rat, flupirtine maleate 35 mg per kg with various dosages of NSAIDS

| Compound | beginning of action compared with the racemic mixture of ibuprofen [1] | effect on the antinociceptive activity of paracetamol, acetyl salicylic acid, and diclofenac [2] | effect on the antinociceptive activity of paracetamol, acetyl salicylic acid, and diclofenac [3] |
| --- | --- | --- | --- |
| CC(C)Cc1ccc([C@H](C)C(=O)O)cc1 [dexibuprofen, (+)-(2S)-2-[4-(2-methylpropyl)-phenyl]propanoic acid] | somewhat faster | – | – |
| CCOC(=O)Nc1ccc(NCc2ccc(F)cc2)nc1N [flupirtine maleate] | – | enhances | enhances |
